Measurements published in patent US6203813A, “Pharmaceutical delivery device and method of preparation therefor” (priority 1998, dated 2001).
Entries after “also recorded” stand apart in the source; their conditions may differ.

How the values were obtained:
rats [1] = conditions: 50 mg pellets containing 10 mg naloxone or naltrexone as base; cited from earlier work
[2] = cited from earlier work
opiate addicts = test: Relapse studies after opiate reversal under general anesthesia (telephone follow-up); type: in vivo, human
male rats = conditions: pentobarbital injection; naltrexone by injection vs pellet; cited from earlier work
[3] = Patients' blood levels of naltrexone and 6-beta-naltrexone after subcutaneous pellet implant; type: in vivo, human
rats [4] = conditions: chronic naltrexone exposure; cited from earlier work
patients = conditions: cited from earlier work

C=CCN1CC[C@]23c4c5ccc(O)c4O[C@H]2C(=O)CC[C@@]3(O)[C@H]1C5 [naloxone, N-allylnoroxymorphone]
analgesia on repeated painful stimulation (rats [1]): repeated painful stimulation results in analgesia in rats treated with an opiate antagonist

O=C1CC[C@@]2(O)[C@H]3Cc4ccc(O)c5c4[C@@]2(CCN3CC2CC2)[C@H]1O5 [naltrexone, N-cyclopropylmethylnoroxy morphone]
level in bloodstream after leveling off, oral ([2]; 1000 mg naltrexone orally, after 48 hours / two days): 0 ng/mL
duration of the 100 ng/ml level, oral ([2]; 1000 mg naltrexone orally): 48 h
level in patient's bloodstream, oral ([2]; 1000 mg naltrexone orally, for 48 hours): 100 ng/mL
undesirable side effects of conventional oral delivery ([2]; at approximately 100 ng/l in the blood stream): undesirable side effects such as an unpleasant feeling
patients using opiates, assuming all not contacted were using (opiate addicts; one month after opiate reversal, DNM versus ONM, x2=0.76 (not significant)): 54%
patients using opiates, excluding those who could not be contacted (opiate addicts; one month follow-up after ORGA, DNM 1000 mg per month pellet versus ONM 50 mg per day oral, x2=14.06 (very significant)): 44%
pentobarbital sleeping time (male rats): increasingly antagonized after naltrexone administration by injection
duration of therapeutically effective naltrexone level in bloodstream ([3]; 1000 mg dose, inventive implant, ~2-8 ng/ml): approximately eighty
Ntx level ([3]; 78 days since implant, patients' blood, pellet of Examples 1-4, listed as Ntx, 112320 min): 6 ng/mL
concentration at 1920 h ([3]; human, blood, sc, 1000 mg, inventive implant, leveling off, for approximately eighty days, read-out: level of naltrexone in patient's bloodstream): 2 to 8 ng/mL
concentration at 192 h ([3]; human, blood, sc, 8 days since implant, patients' blood, pellet of Examples 1-4, read-out: Ntx level): 7 ng/mL
concentration at 336 h ([3]; human, blood, sc, 14 days since implant, patients' blood, pellet of Examples 1-4, read-out: Ntx level): 11 ng/mL
concentration at 528 h ([3]; human, blood, sc, 22 days since implant, patients' blood, pellet of Examples 1-4, read-out: Ntx level): 7 ng/mL
concentration at 672 h ([3]; human, blood, sc, 28 days since implant, patients' blood, pellet of Examples 1-4, read-out: Ntx level): 2 ng/mL
concentration at 696 h ([3]; human, blood, sc, 29 days since implant, patients' blood, pellet of Examples 1-4, read-out: Ntx level): 2 ng/mL
concentration at 768 h ([3]; human, blood, sc, 32 days since implant, patients' blood, pellet of Examples 1-4, read-out: Ntx level): 7 ng/mL
concentration at 792 h ([3]; human, blood, sc, 33 days since implant, patients' blood, pellet of Examples 1-4, read-out: Ntx level): < 2 ng/mL
concentration at 816 h ([3]; human, blood, sc, 34 days since implant, patients' blood, pellet of Examples 1-4, read-out: Ntx level): 4 ng/mL
concentration at 840 h ([3]; human, blood, sc, 35 days since implant, patients' blood, pellet of Examples 1-4, read-out: Ntx level): 4 ng/mL
concentration at 888 h ([3]; human, blood, sc, 37 days since implant, patients' blood, pellet of Examples 1-4, read-out: Ntx level): < 3 ng/mL
concentration at 912 h ([3]; human, blood, sc, 38 days since implant, patients' blood, pellet of Examples 1-4, read-out: Ntx level): < 2 ng/mL
concentration at 936 h ([3]; human, blood, sc, 39 days since implant, patients' blood, pellet of Examples 1-4, read-out: Ntx level): 5 ng/mL
concentration at 1008 h ([3]; human, blood, sc, 42 days since implant, patients' blood, pellet of Examples 1-4, read-out: Ntx level): 4 ng/mL
concentration at 1176 h ([3]; human, blood, sc, 49 days since implant, patients' blood, pellet of Examples 1-4, read-out: Ntx level): 4 ng/mL
concentration at 1224 h ([3]; human, blood, sc, 51 days since implant, patients' blood, pellet of Examples 1-4, read-out: Ntx level): 8 ng/mL
concentration at 1320 h ([3]; human, blood, sc, 55 days since implant, patients' blood, pellet of Examples 1-4, read-out: Ntx level): 36 ng/mL
concentration at 1440 h ([3]; human, blood, sc, 60 days since implant, patients' blood, pellet of Examples 1-4, read-out: Ntx level): 10 ng/mL
concentration at 1488 h ([3]; human, blood, sc, 62 days since implant, patients' blood, pellet of Examples 1-4, read-out: Ntx level): < 4 ng/mL
concentration at 1560 h ([3]; human, blood, sc, 65 days since implant, patients' blood, pellet of Examples 1-4, read-out: Ntx level): < 2 ng/mL
concentration at 1680 h ([3]; human, blood, sc, 70 days since implant, patients' blood, pellet of Examples 1-4, read-out: Ntx level): 3 ng/mL
concentration at 1848 h ([3]; human, blood, sc, 77 days since implant, patients' blood, pellet of Examples 1-4, read-out: Ntx level): 2 ng/mL
concentration at 1872 h ([3]; human, blood, sc, 78 days since implant, patients' blood, pellet of Examples 1-4, read-out: Ntx level): 4 ng/mL
behavioral sensitivity / morphine-induced hyperactivity after chronic naltrexone (rats [4]): produces behavioral supersensitivity to morphine-induced reinforcement and hyperactivity; also recorded: potentiated morphine-induced hyperactivity in rats
analgesia on repeated painful stimulation (rats [1]): repeated painful stimulation results in analgesia in rats treated with an opiate antagonist
addiction liability (patients; human, in vivo): neither addicting nor habit-forming
euphoric effects / effects on stopping the drug (patients; human, in vivo): provides no euphoric effects and there are no observable pharmacological consequences when a patient stops taking the drug
side-effects (patients; use in humans): free of severe side-effects
